# In US10975119B2, “Selective cysteine protease inhibitors and uses thereof” (Genesis Technologies Limited, priority 2011, dated 2021):
# Structures can show the parent of a compound that is named as a salt. Where two headings read alike, the source gives them in different places.
# Assays:
# Assay type in all cases: biochemical
# Caspase-1 = target: T1, Caspase-1 (Homo sapiens, UniProt P29466); assay: Caspase-1 inhibitor screening assay (BioVision kit, YVAD-AFC); details: for inhibition at 10 µM: read-out: % Inhibition at 10 uM Casp1; for inhibition at 100 µM: read-out: % Inhibition at 100 uM Casp1; for IC50: read-out: IC50 Casp1
# T1 construct: mixing the compounds with the respective active caspases; purchased BioVision K151-100
# T1 sequence (P29466 120-297 limits assumed): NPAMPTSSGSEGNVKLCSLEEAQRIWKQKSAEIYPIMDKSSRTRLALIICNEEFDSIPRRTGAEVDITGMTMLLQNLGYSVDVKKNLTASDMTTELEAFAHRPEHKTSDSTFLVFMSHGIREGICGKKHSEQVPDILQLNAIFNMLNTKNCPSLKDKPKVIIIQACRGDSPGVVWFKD
# T1 sequence (P29466 317-404 limits assumed): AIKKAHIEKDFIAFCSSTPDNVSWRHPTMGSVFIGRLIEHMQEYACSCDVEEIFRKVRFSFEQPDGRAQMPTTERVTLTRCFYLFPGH
# Method: (§1) The efficacy of an array of compounds as an inhibitor of the activity of Caspases 1 through 10 were assessed by using the respective Caspase Inhibitor Drug Screening Kits (Caspase-1 Catalog #: K151-100, Caspase-2 Catalog #: K152-100, Caspase-3 Catalog #: K153-100, Caspase-4 Catalog #: K154-100, Caspase-5 Catalog #: K155-100, Caspase-6 Catalog #: K156-100, Caspase-7 Catalog #: K157-100, Caspase-8 Catalog #: K158-100, Caspase-9 Catalog #: K159-100, Caspase-10 Catalog #: K160-100, BioVision) following the instructions of the manufacturer. […] Active caspases cleaved their respective synthetic substrates to release free AFC, which was then quantified by fluorometry.
# (§2) Briefly, the compounds were first tested at 2 concentrations (10 uM and 100 uM final) to determine if there is a hit. […] Each condition was tested in duplicates. […] For some samples, a smaller range of concentrations was tested depending on the % Inhibition results at 10 uM and 100 uM. Results were summarized in Tables 2, 3, and 4 herein after. Table 2 represents the IC50 values (uM) of the test compounds as inhibitors of the activity of the various caspases.
# (§3) (*) RFU (no inhibitor control)—RFU (compound at a specific concentration)
# (§4) RFU (no inhibitor control)
# Caspase-3 = target: T2, Caspase-3 (Homo sapiens, UniProt P42574); assay: Caspase-3 inhibitor screening assay (BioVision kit, DEVD-AFC); details: for inhibition at 10 µM: read-out: % Inhibition at 10 uM Casp3; for inhibition at 100 µM: read-out: % Inhibition at 100 uM Casp3; for IC50: read-out: IC50 Casp3
# T2 construct: mixing the compounds with the respective active caspases; purchased BioVision K153-100
# T2 sequence (P42574 29-175 limits assumed): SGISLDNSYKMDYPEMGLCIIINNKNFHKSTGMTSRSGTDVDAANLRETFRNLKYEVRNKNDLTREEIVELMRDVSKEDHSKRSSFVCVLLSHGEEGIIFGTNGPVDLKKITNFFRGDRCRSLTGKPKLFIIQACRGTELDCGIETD
# T2 sequence (P42574 176-277 limits assumed): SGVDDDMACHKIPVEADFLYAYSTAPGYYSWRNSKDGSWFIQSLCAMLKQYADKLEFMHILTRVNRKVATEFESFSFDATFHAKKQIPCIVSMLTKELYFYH
# Method: as §1, §2, §3, §4
# Caspase-5 = target: T3, Caspase-5 (Homo sapiens, UniProt P51878); assay: Caspase-5 inhibitor screening assay (BioVision kit, WEHD-AFC); details: for inhibition at 10 µM: read-out: % Inhibition at 10 uM Casp5; for inhibition at 100 µM: read-out: % Inhibition at 100 uM Casp5; for IC50: read-out: IC50 Casp5
# T3 construct: mixing the compounds with the respective active caspases; purchased BioVision K155-100
# T3 sequence (P51878 137-327 limits assumed): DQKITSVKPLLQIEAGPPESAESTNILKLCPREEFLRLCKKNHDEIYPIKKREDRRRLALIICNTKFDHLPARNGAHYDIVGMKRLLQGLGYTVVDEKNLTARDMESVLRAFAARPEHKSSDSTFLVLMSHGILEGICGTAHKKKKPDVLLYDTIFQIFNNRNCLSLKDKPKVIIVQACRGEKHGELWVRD
# T3 sequence (P51878 347-434 limits assumed): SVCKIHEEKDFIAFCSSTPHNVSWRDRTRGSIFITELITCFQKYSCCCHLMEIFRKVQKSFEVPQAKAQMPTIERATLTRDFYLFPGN
# Method: as §1, §2, §3, §4
# Caspase-6 = target: T4, Caspase-6 (Homo sapiens, UniProt P55212); assay: Caspase-6 inhibitor screening assay (BioVision kit, VEID-AFC); details: for inhibition at 10 µM: read-out: % Inhibition at 10 uM Casp6; for inhibition at 100 µM: read-out: % Inhibition at 100 uM Casp6; for IC50: read-out: IC50 Casp6
# T4 construct: mixing the compounds with the respective active caspases; purchased BioVision K156-100
# T4 sequence (P55212 24-179 limits assumed): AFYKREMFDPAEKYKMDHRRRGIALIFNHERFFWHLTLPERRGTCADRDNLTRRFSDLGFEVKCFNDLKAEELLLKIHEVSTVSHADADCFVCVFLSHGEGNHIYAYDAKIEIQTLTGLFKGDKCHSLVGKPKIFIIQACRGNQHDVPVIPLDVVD
# T4 sequence (P55212 194-293 limits assumed): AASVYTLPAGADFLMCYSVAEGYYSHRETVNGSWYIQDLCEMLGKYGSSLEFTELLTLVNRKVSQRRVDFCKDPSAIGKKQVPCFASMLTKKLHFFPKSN
# Method: as §1, §2, §3, §4
# Caspase-7 = target: T5, Caspase-7 (Homo sapiens, UniProt P55210); assay: Caspase-7 inhibitor screening assay (BioVision kit, DEVD-AFC); details: for inhibition at 10 µM: read-out: % Inhibition at 10 uM Casp7; for inhibition at 100 µM: read-out: % Inhibition at 100 uM Casp7; for IC50: read-out: IC50 Casp7
# T5 construct: mixing the compounds with the respective active caspases; purchased BioVision K157-100
# T5 sequence (P55210 24-198 limits assumed): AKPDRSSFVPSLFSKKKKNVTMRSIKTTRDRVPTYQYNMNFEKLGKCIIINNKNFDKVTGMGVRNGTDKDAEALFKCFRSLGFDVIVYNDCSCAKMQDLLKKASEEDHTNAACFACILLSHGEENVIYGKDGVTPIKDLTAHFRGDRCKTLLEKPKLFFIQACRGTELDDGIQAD
# T5 sequence (P55210 207-303 limits assumed): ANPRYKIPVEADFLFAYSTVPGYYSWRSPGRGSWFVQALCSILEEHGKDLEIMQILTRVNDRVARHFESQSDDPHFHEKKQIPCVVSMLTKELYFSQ
# Method: as §1, §2, §3, §4
# Caspase-8 = target: T6, Caspase-8 (Homo sapiens, UniProt Q14790); assay: Caspase-8 inhibitor screening assay (BioVision kit, IETD-AFC); details: for inhibition at 10 µM: read-out: % Inhibition at 10 uM Casp8; for inhibition at 100 µM: read-out: % Inhibition at 100 uM Casp8; for IC50: read-out: IC50 Casp8
# T6 construct: mixing the compounds with the respective active caspases; purchased BioVision K158-100
# Method: as §1, §2, §3, §4
# Caspase-10 = target: T7, Caspase-10 (Homo sapiens, UniProt Q92851); assay: Caspase-10 inhibitor screening assay (BioVision kit, AEVD-AFC); details: for inhibition at 10 µM: read-out: % Inhibition at 10 uM Casp10; for inhibition at 100 µM: read-out: % Inhibition at 100 uM Casp10; for IC50: read-out: IC50 Casp10
# T7 construct: mixing the compounds with the respective active caspases; purchased BioVision K160-100
# T7 sequence (Q92851 220-415 limits assumed): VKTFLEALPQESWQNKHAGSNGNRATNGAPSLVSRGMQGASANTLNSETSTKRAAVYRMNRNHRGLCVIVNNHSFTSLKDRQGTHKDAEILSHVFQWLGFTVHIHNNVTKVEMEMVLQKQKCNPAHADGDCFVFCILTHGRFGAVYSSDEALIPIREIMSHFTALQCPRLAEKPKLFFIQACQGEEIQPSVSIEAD
# T7 sequence (Q92851 416-521 limits assumed): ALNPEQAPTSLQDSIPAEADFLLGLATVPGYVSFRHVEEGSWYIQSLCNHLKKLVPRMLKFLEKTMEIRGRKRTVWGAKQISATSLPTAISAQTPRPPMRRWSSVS
# Method: as §1, §2, §3, §4
# T6 sequence (Q14790 217-374 limits assumed): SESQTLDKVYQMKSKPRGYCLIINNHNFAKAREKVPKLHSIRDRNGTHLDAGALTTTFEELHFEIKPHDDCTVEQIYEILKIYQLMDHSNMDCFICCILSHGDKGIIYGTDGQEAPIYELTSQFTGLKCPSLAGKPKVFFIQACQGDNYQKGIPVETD
# T6 sequence (Q14790 385-479 limits assumed): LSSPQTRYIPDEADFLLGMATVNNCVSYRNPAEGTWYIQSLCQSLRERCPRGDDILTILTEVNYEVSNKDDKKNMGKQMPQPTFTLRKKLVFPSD
SMILES,inhibition at 10 µM (Caspase-1),inhibition at 100 µM (Caspase-1),IC50 (Caspase-1),inhibition at 10 µM (Caspase-3),inhibition at 100 µM (Caspase-3),IC50 (Caspase-3),inhibition at 10 µM (Caspase-5),inhibition at 100 µM (Caspase-5),IC50 (Caspase-5),inhibition at 10 µM (Caspase-6),inhibition at 100 µM (Caspase-6),IC50 (Caspase-6),inhibition at 10 µM (Caspase-7; 10 uM),inhibition at 100 µM (Caspase-7; 100 uM),IC50 (Caspase-7),inhibition at 10 µM (Caspase-8; 10 uM),IC50 (Caspase-8),inhibition at 10 µM (Caspase-10),inhibition at 100 µM (Caspase-10; 100 uM),IC50 (Caspase-10),also measured
"CC(C)[C@H](NC(=O)OCc1ccccc1)C(=O)N[C@H](/C=C(\Cl)S(C)(=O)=O)CC(=O)O [Compound 2, Cbz-Val-Asp achlorovinyl methyl vinyl sulfone]",0%,5%,> 100 µM,1%,39%,> 100 µM,10%,12%,> 100 µM,1%,19%,> 100 µM,3%,60%,64.4 µM,2%,> 100 µM,0%,48%,> 100 µM,% Inhibition at 100 uM Casp7 (Caspase-7; 100 uM): 72%; % Inhibition at 100 uM Casp8 (Caspase-8; 100 uM): 33%; inhibition at 100 µM (Caspase-8; 100 uM): 49%; % Inhibition at 100 uM Casp10 (Caspase-10; 100 uM): 31%
"CC(C)[C@H](NC(=O)OCc1ccccc1)C(=O)N[C@H](/C=C/S(C)(=O)=O)CC(=O)O [Compound 3, Z-Val-Asp methyl vinyl sulfone]",18%,26%,> 100 µM,0%,5%,> 100 µM,0%,0%,> 100 µM,0%,0%,> 100 µM,0%,9%,> 100 µM,0%,> 100 µM,15%,50%,> 100 µM,inhibition at 100 µM (Caspase-8; 100 uM): 23%
"CS(=O)(=O)/C(Cl)=C/[C@@H](N)CC(=O)O [Compound 4, Asp achlorovinyl methyl vinyl sulfone, Tosyl Salt]",0%,0%,> 100 µM,4%,7%,> 100 µM,0%,1%,> 100 µM,0%,0%,> 100 µM,–,–,> 100 µM,–,> 100 µM,36%,43%,> 100 µM,inhibition at 10 µM (Caspase-7): 0%; inhibition at 100 µM (Caspase-7): 0%; inhibition at 10 µM (Caspase-8): 6%; inhibition at 100 µM (Caspase-8): 13%
